In PubChem BioAssay AID540274 (Sanford-Burnham Center for Chemical Genomics, 2011):
Active and inactive are the calls of the source.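 The calls were made as follows: active = mean IC50 below 100 µM; inactive = the rest.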

Target: intestinal alkaline phosphatase Alpi (Mus musculus)
Assay: inhibitors of murine Alpi enzyme – biochemical, ortholog specificity, luminescence, set 2, selectivity assay for human IAP inhibitor project, SAR follow-up (AID 540274)
Conditions: purified mouse IAP, CDP-Star luminescence, 30 min

IC50	Compound
> 100 µM (inactive)	N#Cc1ccc(CNC(=O)CCNS(=O)(=O)c2ccc3[nH]c(=O)oc3c2)cc1
0.219 µM	Cc1ccc(C)c(NC(=O)CCNS(=O)(=O)c2ccc3[nH]c(=O)oc3c2)c1
5.05 µM	O=C(CNS(=O)(=O)c1ccc2[nH]c(=O)oc2c1)Nc1ccc2c(c1)OCO2
23 µM	COc1ccc(NC(=O)CNS(=O)(=O)c2ccc3[nH]c(=O)oc3c2)cc1OC
3.31 µM	O=C(CNS(=O)(=O)c1ccc2[nH]c(=O)oc2c1)NCc1ccc2c(c1)OCO2
